Results as given in patent publication US12448394B2, “Heterocyclic pyrazole derivatives as type III receptor tyrosine kinase inhibitors” (DEVELOPMENT CENTER FOR BIOTECHNOLOGY, priority 2019, dated 2025).

Target: T1, FLT3 kinase (Homo sapiens, UniProt P36888)
T1 construct: purchased SignalChem
T1 sequence (P36888 27-993): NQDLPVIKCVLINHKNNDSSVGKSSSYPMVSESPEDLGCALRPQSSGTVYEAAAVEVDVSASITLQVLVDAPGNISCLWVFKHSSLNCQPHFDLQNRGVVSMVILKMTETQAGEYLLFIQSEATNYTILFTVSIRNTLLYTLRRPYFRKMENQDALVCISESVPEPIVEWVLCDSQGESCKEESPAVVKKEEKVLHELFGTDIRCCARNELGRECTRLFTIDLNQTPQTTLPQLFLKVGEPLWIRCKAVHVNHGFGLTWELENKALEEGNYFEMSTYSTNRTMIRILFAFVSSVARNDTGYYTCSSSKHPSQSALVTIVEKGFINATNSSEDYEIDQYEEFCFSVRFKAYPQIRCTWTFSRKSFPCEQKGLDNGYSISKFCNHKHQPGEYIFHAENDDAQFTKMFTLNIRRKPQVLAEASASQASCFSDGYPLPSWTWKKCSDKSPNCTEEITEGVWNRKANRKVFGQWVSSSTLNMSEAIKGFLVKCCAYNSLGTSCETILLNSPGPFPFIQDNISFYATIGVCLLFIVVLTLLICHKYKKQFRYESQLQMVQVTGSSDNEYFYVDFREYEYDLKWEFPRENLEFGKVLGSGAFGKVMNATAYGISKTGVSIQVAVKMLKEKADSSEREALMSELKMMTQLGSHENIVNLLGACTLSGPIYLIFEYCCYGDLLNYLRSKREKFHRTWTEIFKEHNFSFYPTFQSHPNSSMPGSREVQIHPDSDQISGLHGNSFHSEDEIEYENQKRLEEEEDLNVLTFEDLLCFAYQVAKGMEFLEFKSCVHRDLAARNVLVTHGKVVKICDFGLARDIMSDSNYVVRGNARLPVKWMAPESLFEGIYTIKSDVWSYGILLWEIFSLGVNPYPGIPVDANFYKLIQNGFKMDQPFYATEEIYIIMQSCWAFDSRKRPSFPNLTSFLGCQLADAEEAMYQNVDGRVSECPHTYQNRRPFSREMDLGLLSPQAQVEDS
Experiment: FLT3 kinase assay (AlphaScreen)
Format: biochemical
Details: read-out: Ranking of IC50 values, FLT3
Method: Inhibition of FLT3 kinase activity by a test compound disclosed herein was estimated by AlphaScreen (PerkinElmer, […]). Standard assay conditions were 1.5 ng of recombinant FLT3 kinase (SignalChem, Richmond, BC, Canada) with 6 ng Biotin-conjugated Poly-(Glu 4: Tyr 1) (Cisbio, Bedford, MA, USA) in the assay buffer (10 μM ATP, 10 mM MOPs, pH7.0, 0.21 mM EDTA, 0.5% glycerol, 1 mg/mL BSA, 0.01% 2-mercaptoethanol, 0.001% Brij35, 10 mM MgCl2) in a final volume of 25 μL. Reactions were incubated at 30° C. for 30 min and stopped by adding 5 μL of 50 mM EDTA. Analysis of resulting product using an AlphaScreen kit and counted with Enspire Alpha (PerkinElmer, Waltham, MA, USA). […] The IC50 values of inhibitors were determined after carrying out assays with each compound at serially diluted concentrations in duplication. The results were analyzed using linear regression software (GraphPad Prism 5; GraphPad Software Inc.)

Row | Compound | IC50 [nM]
1 | Cn1ncc2ccc(-c3n[nH]c4c3Cc3sc(-c5csc(C(=O)N6CCOCC6)c5)cc3-4)cc21 [Compound 48, (4-(3-(1-methyl-1H-indazol-6-yl)-1,4-dihydro-thieno[2′,3′:4,5]cyclopenta [1,2-c]pyrazol-6-yl)thiophen-2-yl) (morpholino)methanone] | < 1
2 | Cn1ncc2ccc(-c3n[nH]c4c3Cc3sc(-c5ccc(CCN6CCOCC6=O)cc5)cc3-4)cc21 [Compound 66, 4-(4-(3-(1-methyl-1H-indazol-6-yl)-1,4-dihydro-thieno[2′,3′:4,5]cyclopenta [1,2-c]pyrazol-6-yl)phenethyl)morpholin-3-one] | < 1
3 | Cn1ncc2ccc(-c3n[nH]c4c3Cc3sc(-c5csc(C(=O)N6CCOCC6)n5)cc3-4)cc21 [Compound 60, (4-(3-(1-methyl-1H-indazol-6-yl)-1,4-dihydro-thieno[2′,3′:4,5]cyclopenta [1,2-c]pyrazol-6-yl)thiazol-2-yl)(morpholino) methanone] | < 1
4 | C[C@@H]1CN(Cc2ccc(-c3cc4c(s3)Cc3c(-c5ccc6cnn(C)c6c5)n[nH]c3-4)cn2)C[C@H](C)O1 [Compound 9, (2S,6R)-2,6-dimethyl-4-((5-(3-(1-methyl-lH-indazol-6-yl)-1,4-dihydro-thieno[2′,3′:4,5]cyclopenta [1,2-c]pyrazol-6-yl)pyridin-2-yl)methyl) morpholine] | < 1
5 | Cn1ncc2ccc(-c3n[nH]c4c3Cc3sc(-c5ccc(CN6CCCOCC6)cc5)cc3-4)cc21 [Compound 97, 4-(4-(3-(1-methyl-1H-indazol-6-yl)-1,4-dihydro-thieno[2′,3′:4,5]cyclopenta [1,2-c]pyrazol-6-yl)benzyl)-1,4-oxazepane] | < 1
6 | Cn1ncc2ccc(-c3n[nH]c4c3Cc3sc(-c5ccc(CN6CCC6)cc5)cc3-4)cc21 [Compound 103, 6-(4-(azetidin-1-ylmethyl)phenyl)-3-(1-methyl-1H-indazol-6-yl)-1,4-dihydro-thieno[2′,3′:4,5]cyclopenta [1,2-c]pyrazole] | < 1
7 | Cn1ncc2ccc(-c3n[nH]c4c3Cc3sc(-c5ccc(CN6CCCCC6)cc5)cc3-4)cc21 [Compound 100, 3-(1-methyl-1H-indazol-6-yl)-6-(4-(piperidin-1-ylmethyl)phenyl)-1,4-dihydrothieno[2′,3′:4,5] cyclopenta[1,2-c]pyrazole] | < 1
8 | Cn1ncc2ccc(-c3n[nH]c4c3Cc3sc(-c5ccc(CN6CCOCC6=O)cc5)cc3-4)cc21 [Compound 59, 4-(4-(3-(1-methyl-1H-indazol-6-yl)-1,4-dihydro-thieno[2′,3′:4,5]cyclopenta [1,2-c]pyrazol-6-yl)benzyl)morpholin-3-one] | < 1
9 | CC(C)Cn1ncc2ccc(-c3n[nH]c4c3Cc3sc(-c5ccc(CN6CCOCC6)cc5)cc3-4)cc21 [Compound 35, 4-(4-(3-(1-isobutyl-1H-indazol-6-yl)-1,4-dihydro-thieno[2′,3′:4,5]cyclopenta [1,2-c]pyrazol-6-yl)benzyl)morpholine] | 1 to 10
10 | Cn1ncc2ccc(-c3n[nH]c4c3Cc3sc(-c5ccc(CN6CCOCC6)cc5F)cc3-4)cc21 [Compound 32, 4-(3-fluoro-4-(3-(1-methyl-1H-indazol-6-yl)-1,4-dihydrothieno [2′,3′:4,5]cyclopenta [1,2-c]pyrazol-6-yl)benzyl)morpholine] | < 1
11 | C[C@@H]1CN(Cc2ccc(-c3cc4c(s3)Cc3c(-c5ccc6cn[nH]c6c5)n[nH]c3-4)cn2)C[C@H](C)O1 [Compound 16, (2R,6S)-4-((5-(3-(1H-indazol-6-yl)-1,4-dihydro-thieno[2′,3′:4,5]cyclopenta [1,2-c]pyrazol-6-yl)pyridin-2-yl)methyl)-2,6-dimethylmorpholine] | < 1
12 | Cn1ncc2ccc(-c3n[nH]c4c3Cc3sc(-c5csc(CN6CCOCC6)c5)cc3-4)cc21 [Compound 52, 4-((4-(3-(1-methyl-1H-indazol-6-yl)-1,4-dihydro-thieno[2′,3′:4,5]cyclopenta [1,2-c]pyrazol-6-yl)thiophen-2-yl)methyl) morpholine] | < 1
13 | C[C@@H]1CN(C(=O)c2ccc(-c3cc4c(s3)Cc3c(-c5ccc6cnn(C)c6c5)n[nH]c3-4)cc2)C[C@H](C)O1 [Compound 19, ((2S,6R)-2,6-dimethyl-morpholino)(4-(3-(1-methyl-1H-indazol-6-yl)-1,4-dihydrothieno[2′,3′:4,5]cyclopenta[1,2-c]pyrazol-6-yl)phenyl)methanone] | 1 to 10
14 | CN(C)S(=O)(=O)c1ccc(-c2cc3c(s2)Cc2c(-c4ccc5cnn(C)c5c4)n[nH]c2-3)cc1 [Compound 50, N,N-dimethyl-4-(3-(1-methyl-1H-indazol-6-yl)-1,4-dihydrothieno [2′,3′:4,5]cyclopenta [1,2-c]pyrazol-6-yl) benzenesulfonamide] | < 1
15 | Cn1ncc2ccc(-c3n[nH]c4c3Cc3sc(-c5ccc(NC6CCOCC6)cc5)cc3-4)cc21 [Compound 72, N-(4-(3-(1-methyl-1H-indazol-6-yl)-1,4-dihydro-thieno[2′,3′:4,5]cyclopenta [1,2-c]pyrazol-6-yl)phenyl)tetrahydro-2H-pyran-4-amine] | 1 to 10
16 | Cn1ncc2ccc(-c3n[nH]c4c3Cc3sc(C5CCNCC5)cc3-4)cc21 [Compound 96, 3-(1-methyl-1H-indazol-6-yl)-6-(piperidin-4-yl)-1,4-dihydrothieno [2′,3′:4,5]cyclopenta [1,2-c]pyrazole] | < 1
17 | Cn1ncc2ccc(-c3n[nH]c4c3Cc3sc(-c5ccc(CC6CCOCC6)cc5)cc3-4)cc21 [Compound 77, 3-(1-methyl-1H-indazol-6-yl)-6-(4-((tetrahydro-2H-pyran-4-yl)methyl)phenyl)-1,4-dihydrothieno [2′,3′:4,5]cyclopenta [1,2-c]pyrazole] | 1 to 10
18 | Cn1ncc2ccc(-c3n[nH]c4c3Cc3sc(N5CCOCC5=O)cc3-4)cc21 [Compound 79, 4-(3-(1-methyl-1H-indazol-6-yl)-1,4-dihydro-thieno[2′,3′:4,5]cyclopenta [1,2-c]pyrazol-6-yl) morpholin-3-one] | < 1
19 | CC(c1ccc(-c2cc3c(s2)Cc2c(-c4ccc5cnn(C)c5c4)n[nH]c2-3)cc1)N1CCOCC1 (stereo not drawn) [Compound 20, 4-(1-(4-(3-(1-methyl-1H-indazol-6-yl)-1,4-dihydro-thieno[2′,3′:4,5]cyclopenta [1,2-c]pyrazol-6-yl)phenyl)ethyl)morpholine] | 1 to 10
20 | CC1C(=O)N(C)CCN1Cc1ccc(-c2cc3c(s2)Cc2c(-c4ccc5cnn(C)c5c4)n[nH]c2-3)cc1 (stereo not drawn) [Compound 65, 1,3-dimethyl-4-(4-(3-(1-methyl-1H-indazol-6-yl)-1,4-dihydrothieno [2′,3′:4,5]cyclopenta [1,2-c]pyrazol-6-yl)benzyl)piperazin-2-one] | 1 to 10
21 | COC1CN(Cc2ccc(-c3cc4c(s3)Cc3c(-c5ccc6cnn(C)c6c5)n[nH]c3-4)cc2)C1 [Compound 105, 6-(4-((3-methoxyazeti-din-1-yl)methyl)phenyl)-3-(1-methyl-1H-indazol-6-yl)-1,4-dihydrothieno [2′,3′:4,5]cyclopenta [1,2-c]pyrazole] | < 1
22 | Cn1ncc2ccc(-c3n[nH]c4c3Cc3sc(-c5cc(C(=O)N6CCOCC6)ccn5)cc3-4)cc21 [Compound 56, (2-(3-(1-methyl-1H-indazol-6-yl)-1,4-dihydro-thieno[2′,3′:4,5]cyclopenta [1,2-c]pyrazol-6-yl)pyridin-4-yl)(morpholino) methanone] | 1 to 10
23 | C[C@@H]1CN(Cc2ccc(-c3cc4c(s3)Cc3c(-c5ccc6cn[nH]c6c5)n[nH]c3-4)cc2)C[C@H](C)O1 [Compound 7, (2S,6R)-4-(4-(3-(1H-indazol-6-yl)-1,4-dihydrothieno[2′,3′:4,5]cyclopenta [1,2-c]pyrazol-6-yl)benzyl)-2,6-dimethylmorpholine] | 1 to 10
24 | COc1cc(CN2CCOCC2)ccc1-c1cc2c(s1)Cc1c(-c3ccc4cnn(C)c4c3)n[nH]c1-2 [Compound 29, 4-(3-methoxy-4-(3-(1-methyl-1H-indazol-6-yl)-1,4-dihydrothieno [2′,3′:4,5]cyclopenta[1,2-c]pyrazol-6-yl)benzyl) morpholine] | < 1
